In article PMC7806935, “Exosite inhibition of ADAMTS-5 by a glycoconjugated arylsulfonamide” (Scientific Reports, 2021):

Biological target: T1, ADAMTS-5 MDTCS (Homo sapiens, UniProt Q9UNA0)
T1 construct: ADAMTS-5 MDTCS (lacking the C-terminal TS motif but retaining full versicanase activity); made in house; host or cells: HEK293T
T1 sequence (Q9UNA0 262-874 limits assumed): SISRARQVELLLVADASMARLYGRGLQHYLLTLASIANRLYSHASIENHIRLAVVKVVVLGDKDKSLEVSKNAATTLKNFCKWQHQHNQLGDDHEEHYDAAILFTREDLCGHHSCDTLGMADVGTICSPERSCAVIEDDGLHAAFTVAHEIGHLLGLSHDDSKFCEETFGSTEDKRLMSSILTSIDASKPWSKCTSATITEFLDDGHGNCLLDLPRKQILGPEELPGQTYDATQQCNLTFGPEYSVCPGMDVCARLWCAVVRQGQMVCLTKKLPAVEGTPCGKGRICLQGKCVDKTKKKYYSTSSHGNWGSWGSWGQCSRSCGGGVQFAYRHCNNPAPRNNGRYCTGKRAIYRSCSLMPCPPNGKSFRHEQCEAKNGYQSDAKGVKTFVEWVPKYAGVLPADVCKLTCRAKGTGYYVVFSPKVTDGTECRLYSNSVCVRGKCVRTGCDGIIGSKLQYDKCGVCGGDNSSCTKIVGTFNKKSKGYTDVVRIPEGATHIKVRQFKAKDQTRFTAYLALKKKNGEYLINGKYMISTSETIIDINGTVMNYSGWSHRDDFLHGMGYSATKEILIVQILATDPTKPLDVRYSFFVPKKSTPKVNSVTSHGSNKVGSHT
Test: Dual inhibition study (GM6001 with or without 4b, QF peptide cleavage)
Format: biochemical
Procedure: Figure 3 Compound 4b binds to the ADAMTS-5 Mp/Dis domains in the presence of GM6001. (A, B) Compound 4b inhibits versicanase activity of both full-length (FL) ADAMTS-5 and its variant containing only the Mp/Dis domains (ADAMTS-5 MD). Compound 4b (100 μM) or DMSO was incubated either with ADAMTS-5 FL (0.2 nM, A) or ADAMTS-5 MD (26 nM, B) for 2 h at 37 °C before addition of V1-5GAG (50 nM). At each time point, reactions were stopped by addition of EDTA and versikine fragments quantified by sandwich ELISA as reported in the Methods section. In the DMSO control, complete proteolysis was achieved after 7200 s. […]
QF peptide cleavage assays were conducted in 96-well black microtiter plates (Scientific Laboratories Supplies Ltd, Wilford, UK) using a Fluostar Omega microplate reader (BMG Labtech, Aylesbury, UK). The activity of ADAMTS-4 (1 nM) and -5 (5 nM) was monitored for 2 h using the fluorescent peptide substrates fluorescein 5(6)-carbonyl-Ala-Glu-Leu-[…]-Gly-Arg-Pro-Ile-Ser-Ile-Ala-Lys-N,N,N0,N0-tetramethyl-6-carboxyrhodamine-NH2 (FAM-AE ~ LQGRPISIAK-TAMRA, ADAMTS-4) and fluorescein 5(6)-carbonyl-Thr-Glu-Ser-Glu ~ Ser-Arg-Gly-Ala-Ile-Tyr-Lys-Lys-N,N,N0,N0-tetramethyl-6-carboxyrhodamine-NH2 (FAM-TESE ~ SRGAIYKK-TAMRA, ADAMTS-5) (custom-synthesized by Bachem, Bubendorf, Switzerland) with an excitation wavelength of 485 nm and an emission wavelength of 538 nm. […]

For `CNC(=O)[C@H](Cc1c[nH]c2ccccc12)NC(=O)[C@@H](CC(=O)NO)CC(C)C` [GM6001], the IC50 (QF peptide, DMSO, no 4b, read-out: IC50^− (in the absence of 4b)) was 370 ± 90 nM and the “IC50^+/IC50^−” value (ratio with/without 10 μM 4b, < 1 synergistic) was 0.043.
